{"source": "patent US12168668B2", "about": "“Compounds for the treatment of cancer and inflammatory disease” (SHY Therapeutics LLC, priority 2015, dated 2024)", "key": {"TNFα": {"system": "TNFα", "test": "Mouse TNF alpha quantification assay (LPS-stimulated RAW 264.7, ELISA)", "format": "cell-based", "details": "RAW264.7, RAW 264.7 macrophage cell line, LPS stimulation 16 h", "description": "(§1) Protocol for Mouse TNF Alpha and IL6 Quantification Assay\n(§2) Cell lines: Abelson murine leukemia virus transformed macrophage cell line RAW 264.7 was purchased from ATCC and grown in complete DMEM-High Glucose medium supplemented with penicillin (100 U/mL), streptomycin (100 μg/mL), and 10% heat-inactivated FBS at 37° C. in a humidified incubator with 5% CO2.\n(§3) Method: Cells were plated at 40000 cells/well density in a 96-wells plate. After a 3-hour incubation, macrophages were starved with DMEM plus 0.5% FBS o/n. The next day the small molecules to be tested were added to the cells in the final concentration of 30 μM (with 0.3% DMSO) 3 hours prior to LPS stimulation (100 ng/ml). After LPS stimulation cells were incubated at 37° C. for 16 h. At the end of the incubation period, culture media were collected and production of LPS-induced TNFα and IL6 cytokine was measured using ELISA detection kits.\n(§4) Sandwich ELISA: The ELISA Immunoassays Quantikine Mouse TNF-alpha (catalog number MTA00B) and IL6 (catalog number M6000B) were purchased from R&D Systems Inc., Minneapolis, MN These 4.5 hours solid phase ELISAs were used to measure mouse TNFα or IL6 levels in macrophages culture supernatants. Assays were executed according to the manufacturer specifications."}, "IL-6": {"system": "IL-6", "test": "Mouse IL6 quantification assay (LPS-stimulated RAW 264.7, ELISA)", "format": "cell-based", "details": "RAW264.7, RAW 264.7 macrophage cell line, LPS stimulation 16 h", "description": "as §1, §2, §3, §4"}}, "data": [{"smiles": "Oc1ccc(C2(c3ccccc3)CCCC2)cc1", "values": [{"measurement": "inhibition at 30 µM", "setting": "TNFα", "result": "76 to 100", "unit": "%"}, {"measurement": "inhibition at 30 µM", "setting": "IL-6", "result": "76 to 100", "unit": "%"}]}, {"smiles": "Oc1nc(-c2ccccn2)nc2c(-c3ccccc3)csc12", "values": [{"measurement": "inhibition at 30 µM", "setting": "TNFα", "result": "76 to 100", "unit": "%"}]}, {"smiles": "Oc1nc(-c2ccccn2)nc2c(-c3ccccc3Cl)csc12", "values": [{"measurement": "inhibition at 30 µM", "setting": "TNFα", "result": "51 to 75", "unit": "%"}]}]}
